# Laboratory results taken from publication PMC8694143 (Microbiology Spectrum, 2021).
# Residues, ends and D or L forms follow the SMILES beside them. No end group written: not given here. *: point of attachment. For = O=C*
# Assays:
# [1] = Circular dichroism spectroscopy; type: physicochemical; details: for α-Helical content (%): CD, 50% TFE (vol/vol), peptide 0.2 mg/mL, room temperature
# Method: Peptides were dissolved in ultrapure water or 50% TFE (vol/vol) at a concentration of 0.2 mg/mL for spectroscopy. Spectra of samples in a 1 mm pathlength quartz cuvette were recorded from 180 to 260 nm at 0.5 nm steps using an Applied Photophysics Chirascan Plus CD spectrophotometer operating at room temperature.
# SspA protease = SspA protease (Staphylococcus aureus, UniProt P0C1U8); assay: SspA protease treatment with HPLC/MS analysis; type: in vitro ADME; details: peptide 45 μL at 10 mg/mL + SspA 5 μL at 2 mg/mL, 100 mM HEPES pH 7.8, 37°C, 5 h
# Chain of SspA protease (P0C1U8 69-336): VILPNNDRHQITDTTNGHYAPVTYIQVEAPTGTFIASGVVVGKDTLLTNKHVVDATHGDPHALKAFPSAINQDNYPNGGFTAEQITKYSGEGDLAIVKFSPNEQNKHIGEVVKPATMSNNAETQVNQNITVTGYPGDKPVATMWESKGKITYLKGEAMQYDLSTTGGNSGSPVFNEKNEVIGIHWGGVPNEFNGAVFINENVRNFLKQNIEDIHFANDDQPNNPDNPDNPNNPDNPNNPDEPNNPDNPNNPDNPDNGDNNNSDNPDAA
# Method: (§1) SspA protease was resuspended at 2 mg/mL in 100 mM HEPES (pH 7.8). Peptide samples (45 μL at 10 mg/mL) were mixed with SspA (5 μL at 2 mg/mL) and incubated at 37°C for a total of 5 h. The antimicrobial activities of the reaction mixtures were assayed by spotting 5 μL (∼45 μg) of each on either M. luteus or S. aureus test organisms as described above. Additional samples were flash frozen in liquid nitrogen and stored at −80°C prior to high-pressure liquid chromatography-mass spectrometry (HPLC/MS) analysis.
# HPLC/MS analyses were conducted to assess the proteolytic cleavage of STIPs by the SspA protease and catalogue peptides in the reaction mixtures. An Agilent Infinity II 1260 HPLC outfitted with a Phenomenex Lune C5 column (4.6 by 150 mm, 5 μm) was used to separate the peptide fragments using a binary solvent system consisting of solvent A (water, 0.05% formic acid) and solvent B (acetonitrile, 0.05% formic acid) operating at 0.7 mL/min. A 5-μL volume (∼4.5 μg) of each sample was injected at 10% solvent B, followed by a two-step gradient elution from 10% to 50% solvent B in 30 min, then 50% to 100% B in 10 min. The HPLC was coupled to an Advion CMS(L) single quadrupole mass detector through an electrospray ionization source, and ions were detected between 100 and 2,000 m/z. Low temperature and fragmentation settings were used: capillary temperature 135°C, capillary voltage 120 V, source voltage offset 20 V, source gas temperature 135°C, and electrospray ionization (ESI) voltage 3,500 V.
# MRSA ATCC BAA-2094 = assay: MIC determination in broth; type: cell-based, Staphylococcus aureus; details: cation-adjusted MH broth, 37°C, 16 h
# Summary of the method: (§2)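 Twofold serial peptide dilutions; cation-adjusted MH broth; ∼10^5 CFU/mL starting inoculum; 37°C, no shaking.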
# MRSA ATCC 33592 = assay: MIC determination in broth; type: cell-based, Staphylococcus aureus; details: cation-adjusted MH broth, 37°C, 16 h
# Summary of the method: as §2
# MRSA ATCC BAA-42 = assay: MIC determination in broth; type: cell-based, Staphylococcus aureus; details: cation-adjusted MH broth, 37°C, 16 h
# Summary of the method: as §2
# MRSA ATCC BAA-2313 = assay: MIC determination in broth; type: cell-based, Staphylococcus aureus; details: cation-adjusted MH broth, 37°C, 16 h
# Summary of the method: as §2
# MRSA ATCC BAA-41 = assay: MIC determination in broth; type: cell-based, Staphylococcus aureus; details: cation-adjusted MH broth, 37°C, 16 h
# Summary of the method: as §2
# MRSA ATCC BAA-1683 = assay: MIC determination in broth; type: cell-based, Staphylococcus aureus; details: cation-adjusted MH broth, 37°C, 16 h
# Summary of the method: as §2
# S. aureus ATCC 29213 [2] = assay: MIC determination in broth; type: cell-based, Staphylococcus aureus; details: cation-adjusted MH broth, 37°C, 16 h
# Summary of the method: as §2
# MRSA ATCC BAA-44 = assay: MIC determination in broth; type: cell-based, Staphylococcus aureus; details: cation-adjusted MH broth, 37°C, 16 h
# Summary of the method: as §2
# S. aureus ATCC 29213 [3] = assay: Spot-on-lawn assay; type: cell-based, Staphylococcus aureus; details: 50 μg peptide (about 45 μg of SspA reaction mixture) spotted on inoculated soft agar, 37°C, 16 to 48 h
# Method: Peptides (≥70% purity) were resuspended in sterile double distilled water (ddH2O) at a concentration of 10 mg/mL (gross weight), and M. luteus and S. aureus ATCC 29213 were used as indicator strains. To prepare test organisms, the optical density (OD) of overnight cultures was measured and the organisms were diluted to an initial OD of 0.05 (S. aureus) or 0.1 (M. luteus) in soft nutrient agar (0.4% wt/vol) at 50°C. Next, 3 mL of soft agar containing a test organism was overlaid on solid LB agar (1.5% wt/vol). A total of 50 μg of each peptide was spotted on the inoculated surface and plates were incubated for 16 to 48 h at 37 or 30°C.
# as §1
# M. luteus ATCC 4698 = assay: MIC determination in broth; type: cell-based, Micrococcus luteus; details: cation-adjusted MH broth, ~10^5 CFU/mL, 30°C, 48 h
# Method: M. luteus ATCC 4698, S. aureus ATCC 29213, a panel of 7 MRSA (ATCC MP-2) strains, which includes ATCC BAA-41, BAA-42, BAA-44, BAA-1683, BAA-2094, BAA-2313, and 33592, and a series of additional bacterial isolates from human and veterinary cases were used in this study (Table S6). Bacterial strains were routinely grown in lysogeny broth (LB: 10 g/L tryptone, 5 g/L yeast extract, 10 g/L NaCl) at 30°C (M. luteus) or 37°C (Staphylococcus spp.) prior to use in specific experiments described below.
# The MICs were measured for bioactive peptides identified from the initial screen. Cation-adjusted Mueller-Hinton (MH) broth was used as the growth medium for MIC determination experiments. Bacterial cultures were diluted to an OD of 5 × 10^−4 (∼10^5 CFU/mL) in 200 μL MH broth mixed with peptides in a 2-fold dilution series arrayed in 96-well plates. Plates were incubated without shaking at 30 or 37°C depending on the organism.
# sheep red blood cells = assay: Hemolytic activity assay; type: cell-based; details: peptides at 100 μg/mL, 1 h, relative to the δ-toxin and other STIPs
# Method: Thirty-five percent defibrinated sheep’s blood (vol/vol) was centrifuged for 5 min at 4,000 rpm to harvest red blood cells. The cells were washed three times with PBS and harvested by centrifugation prior to dilution to 15% (vol/vol) in PBS in order to evaluate peptide-mediated hemolysis. The assay was performed in 96-well microtiter plates using peptides at 100 μg/mL in a 200-μL volume. […] was used as a negative control and Triton X-100 (0.1% vol/vol) was used as a positive control for complete lysis. After 1 h of incubation, the 96-well microtiter plates were centrifuged at 4,500 rpm for 10 min and a 150 μL aliquot of the supernatant from each sample was carefully transferred to a new 96-well plate. The absorbance of the supernatant was then measured at 540 nm using a Varioskan Lux plate reader (Thermo Scientific). The hemolytic activity is reported relative to complete lysis (%) obtained using Triton X-100. Experiments were performed in triplicate, and statistical differences in hemolysis were measured using an unpaired two-tailed Student’s t test to compare the STIPs and deformylated δ-toxin to the formylated δ-toxin.
# [4] = δ-toxins, highest conc. tested 200 μg/mL
# [5] = STIP3 variants, highest conc. tested 100 μg/mL, ~10^5 CFU/mL, 2-fold dilution series
compound,measurement,setting,value
CC[C@H](C)[C@H](NC(=O)[C@H](Cc1c[nH]c2ccccc12)NC(=O)[C@H](CCCCN)NC(=O)[C@@H](NC(=O)[C@H](CC(C)C)NC(=O)CNC(=O)CNC(=O)[C@@H](NC(=O)[C@@H](NC(=O)[C@H](CCC(=O)O)NC(=O)[C@@H](NC(=O)[C@@H](NC(=O)[C@H](CC(=O)O)NC(=O)[C@H](CCCCN)NC(=O)[C@@H](NC(=O)[C@H](CCSC)NC=O)[C@@H](C)O)[C@@H](C)CC)C(C)C)[C@@H](C)O)C(C)C)C(C)C)C(=O)N[C@@H](CC(C)C)C(=O)N[C@@H](CC(=O)O)C(=O)N[C@H](C(=O)N[C@H](C(=O)N[C@@H](CCCCN)C(=O)N[C@@H](CCCCN)C(=O)N[C@@H](Cc1ccccc1)C(=O)N[C@@H](C)C(=O)O)C(C)C)[C@@H](C)O [δ-toxin] (For-MTKDIVETVGGLVKWILDTVKKFA-OH; C-terminus assumed),α-Helical content (%),[1],88%
same,Secondary structure by CD,"[1]; water and 50% trifluoroethanol (vol/vol), 0.2 mg/mL",α-helical in both solvents
same,Susceptibility to SspA cleavage,SspA protease,no SspA cleavage was observed
same,"MIC, S. aureus ATCC BAA 2094 (SCCmec V)",MRSA ATCC BAA-2094; [4],> (no inhibition was observed at 100 μg/mL for the STIP3 variants or 200 μg/mL for the δ-toxins)
same,"MIC, S. aureus ATCC 33592 (SCCmec III)",MRSA ATCC 33592; [4],> (no inhibition was observed at 100 μg/mL for the STIP3 variants or 200 μg/mL for the δ-toxins)
same,"MIC, S. aureus ATCC BAA 42 (SCCmec VI)",MRSA ATCC BAA-42; [4],> (no inhibition was observed at 100 μg/mL for the STIP3 variants or 200 μg/mL for the δ-toxins)
same,"MIC, S. aureus ATCC BAA 2313 (SCCmec XI)",MRSA ATCC BAA-2313; [4],> (no inhibition was observed at 100 μg/mL for the STIP3 variants or 200 μg/mL for the δ-toxins)
same,"MIC, S. aureus ATCC BAA 41 (SCCmec II)",MRSA ATCC BAA-41; [4],> (no inhibition was observed at 100 μg/mL for the STIP3 variants or 200 μg/mL for the δ-toxins)
same,"MIC, S. aureus ATCC BAA 1683 (SCCmec IV)",MRSA ATCC BAA-1683; [4],> (no inhibition was observed at 100 μg/mL for the STIP3 variants or 200 μg/mL for the δ-toxins)
same,"MIC, S. aureus ATCC 29213",S. aureus ATCC 29213 [2]; [4],> (no inhibition was observed at 100 μg/mL for the STIP3 variants or 200 μg/mL for the δ-toxins)
same,"MIC, S. aureus ATCC BAA 44 (SCCmec I)",MRSA ATCC BAA-44; [4],> (no inhibition was observed at 100 μg/mL for the STIP3 variants or 200 μg/mL for the δ-toxins)
"MTKDIVETVGGLVKWILDTVKKFA [δ-toxin (df), deformylated full-length S. auricularis δ-toxin, reference compound]",α-Helical content (%),[1],87%
same,Susceptibility to SspA cleavage,SspA protease,susceptible to SspA cleavage
same,"MIC, S. aureus ATCC BAA 2094 (SCCmec V)",MRSA ATCC BAA-2094; [4],> (no inhibition was observed at 100 μg/mL for the STIP3 variants or 200 μg/mL for the δ-toxins)
same,"MIC, S. aureus ATCC 33592 (SCCmec III)",MRSA ATCC 33592; [4],> (no inhibition was observed at 100 μg/mL for the STIP3 variants or 200 μg/mL for the δ-toxins)
same,"MIC, S. aureus ATCC BAA 42 (SCCmec VI)",MRSA ATCC BAA-42; [4],> (no inhibition was observed at 100 μg/mL for the STIP3 variants or 200 μg/mL for the δ-toxins)
same,"MIC, S. aureus ATCC BAA 2313 (SCCmec XI)",MRSA ATCC BAA-2313; [4],> (no inhibition was observed at 100 μg/mL for the STIP3 variants or 200 μg/mL for the δ-toxins)
same,"MIC, S. aureus ATCC BAA 41 (SCCmec II)",MRSA ATCC BAA-41; [4],> (no inhibition was observed at 100 μg/mL for the STIP3 variants or 200 μg/mL for the δ-toxins)
same,"MIC, S. aureus ATCC BAA 1683 (SCCmec IV)",MRSA ATCC BAA-1683; [4],> (no inhibition was observed at 100 μg/mL for the STIP3 variants or 200 μg/mL for the δ-toxins)
same,"MIC, S. aureus ATCC 29213",S. aureus ATCC 29213 [2]; [4],> (no inhibition was observed at 100 μg/mL for the STIP3 variants or 200 μg/mL for the δ-toxins)
same,"MIC, S. aureus ATCC BAA 44 (SCCmec I)",MRSA ATCC BAA-44; [4],> (no inhibition was observed at 100 μg/mL for the STIP3 variants or 200 μg/mL for the δ-toxins)
TVAGLVKWILDTVKKFA [G3A],"Inhibition of S. aureus growth, spot-on-lawn",S. aureus ATCC 29213 [3],inhibition observed on an agar surface
same,"MIC, M. luteus",M. luteus ATCC 4698,50 µg/mL
TVGALVKWILDTVKKFA [G4A],"Inhibition of S. aureus growth, spot-on-lawn",S. aureus ATCC 29213 [3],inhibition observed on an agar surface
same,"MIC, M. luteus",M. luteus ATCC 4698,12.5 µg/mL
"TVGGLVKWILATVKKFA-NH2 [STIP3-28, rationally designed STIP3-1 variant, C-terminal amide]",Change of hemolytic activity,sheep red blood cells,increase in hemolysis
same,"MIC, S. aureus ATCC BAA 2094 (SCCmec V)",MRSA ATCC BAA-2094; [5],6.25 µg/mL
same,"MIC, S. aureus ATCC 33592 (SCCmec III)","MRSA ATCC 33592; Table S5, STIP3 variants, highest conc. tested 100 μg/mL, ~10^5 CFU/mL, 2-fold dilution series",6.25 µg/mL
same,"MIC, S. aureus ATCC BAA 42 (SCCmec VI)",MRSA ATCC BAA-42; [5],12.5 µg/mL
same,"MIC, S. aureus ATCC BAA 2313 (SCCmec XI)",MRSA ATCC BAA-2313; [5],12.5 µg/mL
same,"MIC, S. aureus ATCC BAA 41 (SCCmec II)",MRSA ATCC BAA-41; [5],12.5 µg/mL
same,"MIC, S. aureus ATCC BAA 1683 (SCCmec IV)",MRSA ATCC BAA-1683; [5],12.5 µg/mL
same,"MIC, S. aureus ATCC 29213",S. aureus ATCC 29213 [2]; [5],25 µg/mL
same,"MIC, S. aureus ATCC BAA 44 (SCCmec I)",MRSA ATCC BAA-44; [5],12.5 µg/mL
TVGGLVKWILDTVAKFA [K14A],"Inhibition of S. aureus growth, spot-on-lawn",S. aureus ATCC 29213 [3],inhibition observed on an agar surface
same,"MIC, M. luteus",M. luteus ATCC 4698,12.5 µg/mL
TVGGLVKWILDTVKAFA [K15A],"Inhibition of S. aureus growth, spot-on-lawn",S. aureus ATCC 29213 [3],inhibition observed on an agar surface
same,"MIC, M. luteus",M. luteus ATCC 4698,25 µg/mL
